Measured values reported in patent publication US11046954B2, “Targeted protein degradation to attenuate adoptive T-cell therapy associated adverse inflammatory responses” (Dana-Farber Cancer Institute, Inc., priority 2015, dated 2021).
“Also recorded” adds a separate entry of the source.

How the values were obtained:
Format in all cases: cell-based
FKBP* fused to Nluc = target: T1, FKBP* fused to Nluc (Homo sapiens, UniProt P62942+Q96SW2, F37V); experiment: Nluc/Fluc luciferase signal ratio assay of FKBP* degradation in 293FT cells; details: wild type or CRBN −/− 293FT; indicated concentrations, 4 hours
T1 construct: Nluc (nano luciferase, fusion partner); expressed in transfected cells; host or cells: 293FT cells (wild type or CRBN-/-)
T1 sequence (P62942 2-108 F37V): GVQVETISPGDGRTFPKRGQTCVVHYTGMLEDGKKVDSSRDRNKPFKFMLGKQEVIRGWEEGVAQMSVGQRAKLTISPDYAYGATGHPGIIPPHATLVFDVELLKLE
T1 sequence (Q96SW2 whole entry, the tested form may be a part): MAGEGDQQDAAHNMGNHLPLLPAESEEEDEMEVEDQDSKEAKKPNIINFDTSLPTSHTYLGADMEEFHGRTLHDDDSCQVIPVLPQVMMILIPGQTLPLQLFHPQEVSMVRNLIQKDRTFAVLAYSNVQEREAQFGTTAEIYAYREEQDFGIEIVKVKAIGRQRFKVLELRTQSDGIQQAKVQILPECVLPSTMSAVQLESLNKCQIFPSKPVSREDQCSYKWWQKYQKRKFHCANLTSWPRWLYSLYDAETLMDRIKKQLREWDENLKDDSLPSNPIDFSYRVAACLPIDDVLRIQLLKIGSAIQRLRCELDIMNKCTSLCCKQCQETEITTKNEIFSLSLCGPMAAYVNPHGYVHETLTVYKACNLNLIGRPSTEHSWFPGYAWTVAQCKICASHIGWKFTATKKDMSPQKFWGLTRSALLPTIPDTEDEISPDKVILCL
T1 sequence (Q16531 whole entry partner, the tested form may be a part): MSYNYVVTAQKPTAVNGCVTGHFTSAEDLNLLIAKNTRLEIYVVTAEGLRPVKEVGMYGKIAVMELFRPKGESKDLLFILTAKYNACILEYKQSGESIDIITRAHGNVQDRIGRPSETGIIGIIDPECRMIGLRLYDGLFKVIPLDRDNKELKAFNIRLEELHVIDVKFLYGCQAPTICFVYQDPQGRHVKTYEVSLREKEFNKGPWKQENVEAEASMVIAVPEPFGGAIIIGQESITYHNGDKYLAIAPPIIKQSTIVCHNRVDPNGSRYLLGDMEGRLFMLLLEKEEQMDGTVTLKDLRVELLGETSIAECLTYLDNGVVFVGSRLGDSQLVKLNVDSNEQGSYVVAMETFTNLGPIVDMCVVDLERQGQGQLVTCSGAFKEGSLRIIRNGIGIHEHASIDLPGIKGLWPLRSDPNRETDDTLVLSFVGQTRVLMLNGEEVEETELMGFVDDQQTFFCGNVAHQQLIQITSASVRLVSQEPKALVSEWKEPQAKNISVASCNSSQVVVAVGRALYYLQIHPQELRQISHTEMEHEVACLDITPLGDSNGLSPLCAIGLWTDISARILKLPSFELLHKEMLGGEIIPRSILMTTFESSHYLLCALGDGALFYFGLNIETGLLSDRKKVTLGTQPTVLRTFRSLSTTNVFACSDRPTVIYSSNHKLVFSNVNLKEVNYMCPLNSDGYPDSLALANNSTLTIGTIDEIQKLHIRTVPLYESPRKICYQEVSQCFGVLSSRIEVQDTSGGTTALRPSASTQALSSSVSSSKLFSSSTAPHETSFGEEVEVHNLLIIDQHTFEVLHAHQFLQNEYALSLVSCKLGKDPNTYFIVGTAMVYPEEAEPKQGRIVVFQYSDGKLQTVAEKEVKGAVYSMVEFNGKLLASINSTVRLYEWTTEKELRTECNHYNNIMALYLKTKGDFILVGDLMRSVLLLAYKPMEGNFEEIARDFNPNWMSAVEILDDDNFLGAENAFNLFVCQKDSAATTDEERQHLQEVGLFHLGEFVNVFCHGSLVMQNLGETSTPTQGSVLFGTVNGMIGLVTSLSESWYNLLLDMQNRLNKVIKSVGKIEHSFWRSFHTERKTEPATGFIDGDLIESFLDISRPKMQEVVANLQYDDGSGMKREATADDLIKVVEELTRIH
Method: FIG. 7A and FIG. 7B are graphs measuring the activity of a panel of dFKBP heterobifunctional compounds in cells expressing FKBP* fused to Nluc. Degradation of FKBP* is measured as a signal ratio (Nluc/Fluc) between NANOluc and firefly luciferase from the same multicistronic transcript in wild type (FIG. 7A) or CRBN −/− (FIG. 7B) 293FT cells treated with indicated concentrations of dFKBPs for 4 hours. A decrease in the signal ratio indicates FKBP* (Nluc) degradation.
In an effort to identify potent and selective dFKPB heterobifunctional compounds, high throughput measurements of targeted FKBP* degradation were measured by surrogate levels of luciferase. Here, FKBP* is exogenously expressed as a multicistronic transcript with two types of luciferase: nano luciferase (NLuc) and firefly luciferase (FLuc) that allow for cell normalized quantification of FKBP* protein levels. Degradation of FKBP* is measured as a signal ration (Nluc/Fluc) in wild type (FIG. 7A) or CRBN −/−(FIG. 7B) 293FT cells treated with indicated concentrations of dFKBPs for 4 hours.

FKBP* = target: T2, FKBP* (Homo sapiens, UniProt P62942, F37V); experiment: Immunoblot of 293FT cells (CRBN-WT) expressing FKBP*, pretreated with Carfilzomib, MLN4924 or Lenalidomide before dFKBP13
T2 construct: HA; expressed in transfected cells; host or cells: 293FT cells (CRBN-WT or CRBN-/-)
T2 sequence (P62942 whole entry F37V): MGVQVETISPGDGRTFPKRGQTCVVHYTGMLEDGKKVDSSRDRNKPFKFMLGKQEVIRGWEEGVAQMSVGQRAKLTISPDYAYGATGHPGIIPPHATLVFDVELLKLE
Method: (§1) 293FT cells (CRBN-WT) expressing FKBP* were pretreated with luM Carfilzomib (proteasome inhibitor), 0.5 uM MLN4924 (neddylation inhibitor), and 10 uM Lenalidomide (CRBN binding ligand) for two hours prior to a 4 hour treatment with dFKBP13.
as §1, with “were engineered to express FKBP*. Cells” for “expressing FKBP*”, “dFKBP13. Lysates were prepared and western immunoblot analysis performed.” for “dFKBP13.”

[1] = system: NIH3T3 expressing FKBP* fused to the N-terminus of KRASG12V; experiment: Phase contrast imaging of NIH3T3 cells expressing FKBP*-KRASG12V; details: NIH3T3 expressing dTAG-KRAS; dFKBP13, 24 hours; vs DMSO
Method: FIG. 23A, FIG. 23B, FIG. 23C, and FIG. 23D are panels of phase contrast images of control NIH3T3 cells or NIH3T3 expressing FKBP* fused to the N-terminus of KRASG12V treated with DMSO or dFKBP13 for 24 hours.

Structure (SMILES) | FKBP* (Nluc) degradation, signal ratio (Nluc/Fluc) (FKBP* fused to Nluc) | degradation of HA-tagged FKBP* by dFKBP13 after MLN4924 pretreatment (FKBP*; 0.5 uM MLN4924 (neddylation inhibitor) two hours prior to 4 hour dFKBP13) | degradation of HA-tagged FKBP* by dFKBP13 after Carfilzomib pretreatment (FKBP*; 1 uM Carfilzomib (proteasome inhibitor) two hours prior to 4 hour dFKBP13) | degradation of FKBP* by dFKBP13 after Lenalidomide pretreatment (FKBP*; 10 uM Lenalidomide (CRBN binding ligand) two hours prior to 4 hour dFKBP13) | morphological change of cells [1]
CC[C@H](C(=O)N1CCCC[C@H]1C(=O)O[C@H](CCc1ccc(OC)c(OC)c1)c1cccc(OCC(=O)NCCCOCCOCCOCCCNC(=O)COc2cccc3c2C(=O)N(C2CCC(=O)NC2=O)C3=O)c1)c1cc(OC)c(OC)c(OC)c1 (some centres unmarked) [dFKBP7] | effectively degrade FKBP* in a cereblon dependent manner | – | – | – | –
CC[C@H](C(=O)N1CCCC[C@H]1C(=O)O[C@H](CCc1ccc(OC)c(OC)c1)c1cccc(OCC(=O)NCCCCCCOc2cccc3c2C(=O)N(C2CCC(=O)NC2=O)C3=O)c1)c1cc(OC)c(OC)c(OC)c1 (some centres unmarked) [dFKBP13] | – | rescued HA-tagged FKBP* | rescued by the proteasome inhibitor Carfilzomib | abolished dFKBP13-dependent FKBP* degradation | cells morphologically revert back to the wild type (DMSO control) state; also recorded: morphological change induced
